In paper PMC3608555, “The HopQ1 Effector’s Nucleoside Hydrolase-Like Domain Is Required for Bacterial Virulence in Arabidopsis and Tomato, but Not Host Recognition in Tobacco” (PLoS ONE, 2013):

Biological target: RihB (MBP:RihB) (Escherichia coli, UniProt P33022)
Details: high activity, data not shown

RihB (MBP:RihB), sequence (P33022 whole entry): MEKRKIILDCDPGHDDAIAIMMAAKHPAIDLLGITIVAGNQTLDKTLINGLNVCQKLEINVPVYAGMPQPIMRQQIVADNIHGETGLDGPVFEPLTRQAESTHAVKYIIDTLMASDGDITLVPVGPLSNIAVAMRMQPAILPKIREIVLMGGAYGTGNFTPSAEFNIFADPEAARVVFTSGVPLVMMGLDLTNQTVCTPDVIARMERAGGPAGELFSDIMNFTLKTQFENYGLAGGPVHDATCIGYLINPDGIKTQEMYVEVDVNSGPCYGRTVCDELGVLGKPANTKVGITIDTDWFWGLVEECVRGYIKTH

O=c1ccn([C@@H]2O[C@H](CO)[C@@H](O)[C@H]2O)c(=O)[nH]1 [uridine]
nucleoside hydrolase activity assay: MBP:RihB showed high enzymatic activity for cytidine and uridine
